Test results reported in US20150323548A1, “METHODS OF MONITORING THE MODULATION OF THE KINASE ACTIVITY OF FIBROBLAST GROWTH FACTOR RECEPTOR AND USES OF SAID METHODS” (Novartis AG, priority 2008, published 2015).
Where two headings read alike, the source gives them in different places.

What was measured:
FGF23 [1] = test: FGF23 ELISA in plasma of mRCC patients; format: in vivo, human
FGF23 [2] = conditions: for mean plasma FGF23 increase over baseline: melanoma patients; for Increase of FGF23 levels over basal levels (up to): 400 mg daily
Procedure: Blood sampling was performed at the indicated day and cycle. FGF23 levels were measured in plasma. The values given for C1D1 are the baseline values.
(§1) Methods: Patients were treated orally with 200, 300, 400 or 500 mg/day on a once daily continuous dose schedule. […] Plasma samples from 43 patients were collected. […] Plasma FGF23 was evaluated by ELISA

FGF23 [3] = test: FGF23 ELISA in serum of Rowett rats bearing RT112 xenografts; conditions: single oral 10, 25, 50 mg/kg; 24 hours post dosing; p<0.01
Procedure: FGF23 levels were monitored using the FGF23 ELISA kit from Kainos, catalogue number CY-4000, and are expressed in pg/mL. Data are presented as means of n=4, ±SD. Data were compared by one-way Anova post-hoc Dunnett's versus vehicle.
Animals. Experiments were performed in female Rowett rats Hsd:RH-Foxlrnu. These athymic Nude-Rats were obtained from Harlan (The Netherlands)
Compound Formulation and Animal Treatment. […] Vehicle consisted of acetic acid-acetate buffer (pH 4.6)/PEG300 (2:1 v/v). The application volumes were 5 ml/kg.
Blood and tissue sampling for ex vivo analysis. Blood samples were drawn sublingually at 3 h, 7 h and 24 h post-compound administration. Plasma and as serum were prepared from each blood sample. At the same time points, tumors were dissected and snap frozen in liquid nitrogen.

[4] = test system: FRS2 tyrosine phosphorylation (read-out for FGFR activity); test: Ex vivo FRS2 tyrosine phosphorylation in RT112 tumor xenografts in rats (Western blot); set-up: species or system rat; conditions: single oral 10, 25 or 50 mg/kg; tumors dissected 3 h post-treatment
Procedure: FIG. 12 is a photograph showing the ex vivo analysis of RT112 tumor xenografts. Tumors were dissected 3 h after compound administration. Tumor tissue was lysed and FRS2 tyrosine phosphorylation levels were analysed by western blot using an antibody from Cell Signaling (#3864) that detects FRS2 when phosphorylated on Tyr196. As a loading control, membrane was probed with an antibody from Sigma (#T4026) that detects b-tubulin.
Compound Formulation and Animal Treatment. […] The application volumes were 5 ml/kg.
Ex vivo analysis of RT112 tumor xenografts: RT112 bladder cancer cells express high levels of FGFR3, the activity of which can be monitored in these cells by measuring changes in FRS2 tyrosine phosphorylation, a substrate of the FGFRs. The tumor material was pulverized using a swing mill (RETSCH, either MM2 or MM200). Aliquots of tumor powder (50 mg) were lysed in ice-chilled lysis buffer containing 50 mM Tris pH 7.5, 150 mM NaCl, 1 mM EGTA, 5 mM EDTA, 1% Triton, 2 mM NaVanadate, 1 mM PMSF and protease inhibitors cocktail Roche #11873580001). Lysates were clarified by centrifugation at 12000×g for 15 min and protein concentration was determined using the DC protein assay reagents (Bio Rad #500-0116) and a BSA standard. Total cell lysates were subjected to SDS-PAGE and proteins blotted onto PVDF membranes. […]

[5] = Phase I clinical trial in metastatic renal cell carcinoma patients: PK, toxicity, efficacy
clinical = conditions: human, in vivo, po
Procedure: as §1

[6] = test system: phosphorylated and activated FGFR; test: Immunohistochemistry of pFGFR in melanoma tumor biopsy; conditions: melanoma patient, 400 mg, cycle 1 Day 15
FGF23 [7] = test: FGF23 ELISA in serum of wistar rats; format: in vivo, rat; conditions: single oral 50 mg/kg; 24 h post administration; p<0.01
Procedure: Data are presented as means of n=6, ±SD.
Animals. Experiments were performed in female wistar rats furth WF/Ico
The application volumes were 5 ml/kg.
Blood samples were drawn sublingually at 24 h post-compound administration. Plasma, as well as serum samples were prepared from each blood sample.

## CN1CCN(c2ccc3nc(-c4c(N)c5c(F)cccc5[nH]c4=O)[nH]c3c2)CC1 [TKI258]
FGF23 [1]; mRCC patients having increased FGF23
  peak of FGF23 level (day of cycle 1): ~15 days
FGF23 [1]; mRCC patients having increased FGF23, 500 mg/day
  increase of FGF23 level compared to the baseline level: 1.35-1.75
FGF23 [1]; pts from the first 500 mg/day dosing cohort
  plasma FGF23 levels: Induction of plasma FGF23 levels
FGF23 [2]; Patient A, 200 mg daily oral, C1D15
  FGF23: 39.8 pg/mL
FGF23 [2]; Patient A, 200 mg daily oral, C1D26
  FGF23: 24.4 pg/mL
FGF23 [2]; Patient A, 200 mg daily oral, C3D26
  FGF23: 31.8 pg/mL
FGF23 [2]; Patient A, 200 mg daily oral, C6D26
  FGF23: 21.1 pg/mL
FGF23 [2]; Patient A, 200 mg daily oral, C9D26
  FGF23: 39.6 pg/mL
FGF23 [2]; Patient B, 400 mg daily oral, C1D15
  FGF23: 94.1 pg/mL
FGF23 [2]; Patient B, 400 mg daily oral, C3D26
  FGF23: 88.5 pg/mL
FGF23 [2]; Patient B, 400 mg daily oral, C4D26
  FGF23: 141.5 pg/mL
FGF23 [2]; Patient C, 400 mg daily oral, C1D15
  FGF23: 86.5 pg/mL
FGF23 [2]; melanoma and metastatic renal cell carcinoma patients, 400 mg or 500 mg, preliminary observation
  peak of FGF23 (day in first cycle of treatment): ~15 days
FGF23 [2]; day 15 of the first treatment cycle
  mean plasma FGF23 increase over baseline: 63%
FGF23 [2]; end of the first treatment cycle
  mean plasma FGF23 increase over baseline: 68%
FGF23 [2]; one patient, 400 mg, Cycle 1 Day 15
  plasma FGF23 increase over baseline: 98%
FGF23 [2]; one patient, 400 mg, Cycle 1 Day 15 (baseline level 40 pg/ml)
  plasma FGF23 level: about 80 pg/ml
FGF23 [2]; patient B
  Increase of FGF23 levels over basal levels (up to): up to 1.96 fold
FGF23 [2]; patient B, listed as TK1258
  Increase of FGF23 levels over basal levels (up to): ≤ 1.96 fold
FGF23 [2]; patient C
  Increase of FGF23 levels over basal levels (up to): ≤ 2.1 fold
FGF23 [3]
  serum levels of FGF23 vs vehicle-treated group: dose-dependent increased in serum levels of FGF23
[4]
  FRS2 tyrosine phosphorylation in RT112 tumors: inhibited FRS2 tyrosine phosphorylation in a dose-dependent manner
[5]; mRCC patients
  Preliminary evidence of efficacy (other responses): 4 stable disease and 1 dramatic shrinkage/necrosis of some target lesions
[5]; one mRCC patient, C4
  minor response (change at C4): −17%
clinical; 400 mg
  AUC(0-t): ~3000 ng·h/mL
clinical; 500 mg
  AUC(0-t): ~4100 ng·h/mL
[6]
  pFGFR in tumor biopsy (immunohistochemistry): significant pFGFR inhibition
FGF23 [7]
  serum levels of FGF23 vs vehicle-treated group: statistically significant increased in serum levels of FGF23
